Experimental data: US20250195528A1, “DOSE REGIMEN OF VICASINABIN” (Hoffmann-La Roche Inc., priority 2022, published 2025)
“Also recorded” adds a separate entry of the source. Read-outs that look alike come from different tables or passages of the source.

What was measured:
[1] = system: LPS-induced cytokine production in whole blood; assay: Ex vivo LPS whole blood challenge in participants of Study BP40387 (MAD); set-up: species or system human
Protocol: In addition to the CB2R-TE whole blood assay, an in vitro LPS whole blood challenge assay was applied using blood from healthy participants that received multiple 300 mg doses of RO6868847 6 in the MAD study.
In example 2, target engagement of RO6868847 was assessed on circulating B-cells from whole blood samples utilizing a newly developed exploratory flow cytometry assay to monitor RO6868847-induced CB2 receptor internalization on B-cells. […] Upon treatment discontinuation CB2 receptor surface expression returned to baseline approximately within 1 week. Target engagement appeared to reach a plateau at doses of 100 mg RO6868847 with only marginal increases at higher doses of RO6868847. In example 2, pro-inflammatory cytokine production was induced by ex vivo stimulation with LPS in freshly obtained whole blood samples, to measure downstream markers of RO6868847-mediated CB2 receptor internalization and explore its pharmacological profile. Serum levels of TNF-α, G-CSF, IL-1β, and […], of participants in Study BP40387 were assessed to investigate the changes of these cytokines in the presence of repeated dose administration of up to 300 mg RO6868847 once-daily for 14 days. […] It should be noted that the IL1-β analysis was negatively affected by a substantial proportion of baseline data, not being reportable (see FIG. 8), especially at the highest tested doses of 300 mg of RO6868847. Substantial variability in these measurements was observed. However, this was expected and no dedicated predefined statistical analysis was performed since cohort sizes were small for this exploratory assessment.

human CB1 = human CB1 (Homo sapiens, UniProt P21554); assay: Human CB1 binding assay
[2] = system: 78 additional receptors and ion channels; assay: Radioligand binding assays on additional receptors and ion channels
CB2 = target: T1, CB2 (Rattus norvegicus, UniProt Q9QZN9); assay: In vitro rat Ki; type: binding
T1 sequence (Q9QZN9 1-360): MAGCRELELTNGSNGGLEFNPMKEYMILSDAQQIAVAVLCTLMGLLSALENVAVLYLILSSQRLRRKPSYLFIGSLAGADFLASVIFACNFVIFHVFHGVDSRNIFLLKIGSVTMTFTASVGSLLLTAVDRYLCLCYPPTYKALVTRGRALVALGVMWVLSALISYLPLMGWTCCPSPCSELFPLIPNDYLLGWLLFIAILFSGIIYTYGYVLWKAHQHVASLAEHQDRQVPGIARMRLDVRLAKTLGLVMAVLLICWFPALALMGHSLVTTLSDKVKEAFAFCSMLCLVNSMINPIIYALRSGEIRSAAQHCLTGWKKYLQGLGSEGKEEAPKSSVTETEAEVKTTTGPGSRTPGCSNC
From the text: FIG. 10 illustrates Disease Markers versus Free Exposure of the Active S-Epimer RO6868847 in Several Animal Models. […] Disease markers (hyperfluorescence area in mm^2, OD retina-plasma fluorescein ratio, number of leukocytes per mm^2 or total length of processes in mm) as a percent of the control value (100% represents the vehicle-treated diabetic control and 0% for vehicle-treated healthy control) in different in vivo PD models as a function of the free AUC0-24 of the active S-epimer RO6868847.
Based on this integrated assessment, the pharmacologically active exposure range observed in rats spans 2 logs, with an upper bound (unbound AUC0-24 [S-epimer]=546 ng·hr/mL) corresponding to the full effect at 10 mg/kg in a rat STZ-induced Type 1 diabetes model and the lower bound (unbound AUC0-24 [S-epimer]=2.8 ng·hr/mL) corresponding to 50% decrease in disease marker (hypoerfluorescence area) in a laser-induced NV rat model.

human CB2 = target: T2, human CB2 (Homo sapiens, UniProt P34972); assay: Radioligand binding to CB2, U698M cells expressing endogenous CB2
T2 construct: expressed in transfected cells; host or cells: CHO cells

[3] = system: LPS-induced G-CSF, IFNγ, IL1β and TNFα levels in whole blood; assay: In vitro LPS whole blood challenge assay; type: cell-based, human
Protocol: In order to explore any putative anti-inflammatory pharmacodynamic effect mediated by the CB2 agonist RO6868847 in a potentially clinically relevant human sample, an ex vivo whole blood lipopolysacharid (LPS) challenge assay was performed. Sodium heparin whole blood samples from healthy participants (n=8) were incubated in vitro for 1 hour at 37° C. with eight increasing concentrations of RO6868847 (0-30 μM) and exposed to LPS (100 ng/ml). After 18 h at 37° C. supernatants were analyzed for alterations in a range of chemokines and cytokines using Luminex-bead based multiplex ELISAs.
In addition, this in vitro LPS whole blood challenge assay was also used in samples from diabetic (Type I and Type II) and matched healthy participants (table 6). In order to explore whether the exposure (0-30 μM)-response relationship of RO6868847 and the respective alterations in cytokine levels may be changed by any chronic inflammatory conditions in diabetes (DM) and/or in elderly healthy participants (HP), who are anticipated to be the study population of the Phase II proof of concept Study.

[4] = Solubility of drug substance; type: physicochemical
Protocol: For Phase I, film-coated tablets for oral administration containing 0.05, 0.75, 10, or 100 mg of RO6868847 drug substance were developed for clinical use. Three placebo film-coated tablets were formulated to match the active film-coated tablets in size and in appearance: one size to match the active 0.05 and 0.75 mg film-coated tablets and one size each to match the active 10 and 100 mg film-coated tablets.

[5] = Study BP40387 Part 2 (FE) food effect on pharmacokinetics; type: in vivo, human; settings: for Tmax: both sexes, human, plasma, oral, 100 mg single dose, read-out: Median Tmax
From the text: In Part 2 (FE) of Study BP40387, consistent with delayed gastric emptying due to an extended meal, the time to reach peak plasma concentration (Tmax) was slightly longer following dosing after a high fat, high calorie breakfast. […] Single Dose Urine Pharmacokinetics

[6] = steady-state, up to 300 mg once-daily for 14 days
[7] = diabetic patients and matched healthy participants

Chain of human CB1 (P21554 whole entry): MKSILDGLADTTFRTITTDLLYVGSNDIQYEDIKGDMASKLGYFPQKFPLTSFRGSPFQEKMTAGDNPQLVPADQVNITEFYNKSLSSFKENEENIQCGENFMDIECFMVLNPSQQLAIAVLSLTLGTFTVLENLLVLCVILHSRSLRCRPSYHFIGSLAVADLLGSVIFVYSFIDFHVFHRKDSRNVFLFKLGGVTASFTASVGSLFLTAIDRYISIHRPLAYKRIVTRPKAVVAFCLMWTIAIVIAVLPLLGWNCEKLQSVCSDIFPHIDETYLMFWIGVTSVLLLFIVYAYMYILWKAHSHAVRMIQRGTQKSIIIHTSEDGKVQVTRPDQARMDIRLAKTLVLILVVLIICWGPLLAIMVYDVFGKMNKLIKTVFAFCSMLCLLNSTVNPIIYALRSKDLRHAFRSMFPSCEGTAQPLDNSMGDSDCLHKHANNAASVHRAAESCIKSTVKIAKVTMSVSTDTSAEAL
T2 sequence (P34972 whole entry): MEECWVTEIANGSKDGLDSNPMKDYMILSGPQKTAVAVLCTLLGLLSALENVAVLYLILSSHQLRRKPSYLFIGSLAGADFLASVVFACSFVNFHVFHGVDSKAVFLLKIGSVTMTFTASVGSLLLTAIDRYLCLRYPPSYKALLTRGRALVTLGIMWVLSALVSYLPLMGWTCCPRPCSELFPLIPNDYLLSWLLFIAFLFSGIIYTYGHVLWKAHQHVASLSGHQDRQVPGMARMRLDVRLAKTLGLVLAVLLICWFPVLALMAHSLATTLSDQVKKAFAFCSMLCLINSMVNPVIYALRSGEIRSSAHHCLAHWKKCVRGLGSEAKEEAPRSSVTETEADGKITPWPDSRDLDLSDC

SMILES: Cn1nnnc1Cn1nnc2c(N3CC[C@H](O)C3)nc(C(C)(C)C)nc21 [RO6868847, (3S)-1-[5-tert-butyl-3-[(1-methyltetrazol-5-yl)methyl]triazolo[4,5-d]pyrimidin-7-yl]pyrrolidin-3-ol]
- LPS-induced cytokine release / pro-inflammatory cytokine production ([1]; multiple doses, MAD): appeared to attenuate; also recorded: attenuation of LPS-induced cytokine release was observed only at the higher end of the dose range
- IFN-γ level after ex vivo LPS vs baseline [1, 6]: did not show any detectable trend
- TNF-α, G-CSF and IL1-β levels after ex vivo LPS vs baseline [1, 6]: concentration-dependent effect
- Ki (human CB1): > 10 µM
- CB1/CB2 Ratio (binding selectivity) (human CB1; CB1 Ki over CB2 Ki): >195 fold
- affinity for human CB1 (human CB1; highest concentration of 10 μM): no affinity
- selectivity for CB2 [2]: excellent selectivity for CB2
- Ki (CB2; rat): 33.3 nM
- unbound AUC0-24 at in vitro rat Ki as share of upper bound of active exposure (CB2; rat): 52%
- free AUC0-24 extrapolated from rat Ki (CB2; rat Ki x 24): 286 ng·h/mL
- Ki (CB2; rat, converted from nM): 33.5 nM
- IC50 (human CB2): 0.0922 ± 0.0131 µM
- Ki (human CB2): 0.0628 µM
- IC50 ([3]; Homo sapiens, DM, 3/9, read-out: IC50 (IL-1β)/μM): 29.4 ± 24.1 µM
- IC50 ([3]; Homo sapiens, DM, 7/9, read-out: IC50 (IFNγ)/μM): 6.91 ± 2.29 µM
- IC50 ([3]; Homo sapiens, HV, 3/8, read-out: IC50 (TNFα)/μM): 7 ± 4.61 µM
- IC50 ([3]; Homo sapiens, HV, 5/8, read-out: IC50 (IL-1β)/μM): 5.02 ± 4.58 µM
- IC50 ([3]; Homo sapiens, HV, 6/8, read-out: IC50 (IFNγ)/μM): 10.9 ± 8.9 µM
- IC50 ([3]; Homo sapiens, Matched HVs, 4/8, read-out: IC50 (IFNγ)/μM): 12.4 ± 4.19 µM
- EC50 ([3]; Homo sapiens, HV, curves fitted 5/8): 7.97 ± 6.71 µM
- G-CSF and TNFα levels post LPS [3, 7]: an overall drug response in the explored exposure range could not be concluded
- IFNγ level post LPS [3, 7]: dose-dependent attenuation of IFNγ
- chemokine and cytokine levels post LPS stimulation ([3]; healthy participants n=8, 0-30 μM, LPS 100 ng/ml, 18 h): decrease of IFNγ, IL1β, TNFα and elevation of G-CSF
- solubility in aqueous solutions [4]: slightly soluble
- solubility in organic solvents [4]: moderate to good solubility
- effect of food on AUCInf ([5]; 100 mg, fed vs fasted): increased only marginally
- effect of food on Cmax ([5]; 100 mg, fed vs fasted): remained unaffected by food
- Tmax ([5]; 100 mg, fasted state): 3 h
- Tmax ([5]; 100 mg, fed state (high fat, high calorie breakfast)): 4 h
- effect of food on the pharmacokinetics ([5]; overall): no relevant effect
